Results as given in patent US4730005A, “Leukotriene antagonist” (SmithKline Beckman Corporation, priority 1986, dated 1988).

Legend:
[1] = tested on: carrageenan peritonitis in mice; experiment: carrageenan peritonitis in mice; type: in vivo; conditions: oral administration at 100 mg/kg
[2] = tested on: arachidonic acid-induced inflammation in mice; experiment: arachidonic acid-induced inflammation in mice; type: in vivo
[3] = target: T1, leukotriene D4 (LTD4) induced contraction of guinea pig tracheal tissues (Cavia porcellus, UniProt Q2NNR5); experiment: in vitro inhibition of LTD4 induced contraction of guinea pig tracheal spiral strips; type: cell-based, guinea pig (adult male albino Hartley strain); conditions: guinea pig trachea, LTD4 agonist, 30 min pretreatment with test compound
T1 construct: Guinea pig (adult male albino Hartley strain) tracheal spiral strips; from tissue; host or cells: guinea pig trachea (spiral strips, adult male albino Hartley strain)
T1 sequence (Q2NNR5 1-340): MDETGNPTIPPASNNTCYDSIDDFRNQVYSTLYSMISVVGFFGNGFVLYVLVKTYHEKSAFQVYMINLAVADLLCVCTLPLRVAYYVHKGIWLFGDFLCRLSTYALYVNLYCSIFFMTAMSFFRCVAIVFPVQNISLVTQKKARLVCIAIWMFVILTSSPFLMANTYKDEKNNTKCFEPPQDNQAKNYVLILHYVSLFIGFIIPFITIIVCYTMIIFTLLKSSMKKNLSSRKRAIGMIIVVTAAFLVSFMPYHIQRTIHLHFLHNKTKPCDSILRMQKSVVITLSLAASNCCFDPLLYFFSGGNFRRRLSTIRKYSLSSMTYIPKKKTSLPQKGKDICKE
Method: The leukotriene antagonist activity of the compounds of this invention is measured by the ability of the compounds to inhibit the leukotriene induced contraction of guinea pig tracheal tissues in vitro and to inhibit leukotriene induced bronchoconstriction in guinea pigs in vivo. The following methodologies were employed: In vitro: Guinea pig (adult male albino Hartley strain) tracheal spiral strips of approximate dimensions 2 to 3 mm cross-sectional width and 3.5 cm length were bathed in modified Krebs buffer in jacketed 10 ml tissue bath and continously aerated with 95% 02 /5% CO2. The tissues were connected via silk suture to force displacement transducers for recording isometric tension. The tissues were equilibrated for 1 hr., pretreated for 15 minutes with meclofenamic acid (1 μM) to remove intrinsic prostaglandin responses, and then pretreated for an additional 30 minutes with either the test compound or vehicle control. A cumulative concentration-response curve for LTD4 on triplicate tissues was generated by successive increases in the bath concentration of the LTD4. In order to minimize intertissue variability, the contractions elicited by LTD4 were standardized as a percentage of the maximum response obtained to a reference agonist, carbachol (10 μM). Calculations: The averages of the triplicate LTD4 concentration-response curves both in the presence and absence of the test compound were plotted on log graph paper. The concentration of LTD4 needed to elicit 30% of the contraction elicited by carbachol was measured and defined as the EC30. The -log KB value for the test compound was determined by the following equations: [formula] In vivo: Anesthetized, spontaneously breathing guinea pigs (Adult male albino Hartley strain) were monitored on a Buxco pulmonary mechanics computer. Changes in airway resistance (RL) were calculated by the computer on a breath-by-breath basis at isovolumic points from signals measuring airflow and transpulmonary pressure using differential pressure transducers. Animals received either test compound or vehicle control intravenously via the jugular vein. LTD4 was then injected into the jugular vein. The bronchoconstriction produced was reflected by % changes in airways resistance relative to the baseline values obtained prior to injection of the test compound or vehicle control. Each guinea pig received either vehicle control or test compound.

[4] = tested on: LTD4 induced bronchoconstriction in guinea pigs; experiment: in vivo inhibition of LTD4 induced bronchoconstriction (airway resistance RL) in guinea pigs; parameters: species or system guinea pig (adult male albino Hartley strain); conditions: intravenous
Method: The leukotriene antagonist activity of the compounds of this invention is measured by the ability of the compounds to inhibit the leukotriene induced contraction of guinea pig tracheal tissues in vitro and to inhibit leukotriene induced bronchoconstriction in guinea pigs in vivo. The following methodologies were employed: In vitro: Guinea pig (adult male albino Hartley strain) tracheal spiral strips of approximate dimensions 2 to 3 mm cross-sectional width and 3.5 cm length were bathed in modified Krebs buffer in jacketed 10 ml tissue bath and continously aerated with 95% 02 /5% CO2. The tissues were connected via silk suture to force displacement transducers for recording isometric tension. The tissues were equilibrated for 1 hr., pretreated for 15 minutes with meclofenamic acid (1 μM) to remove intrinsic prostaglandin responses, and then pretreated for an additional 30 minutes with either the test compound or vehicle control. A cumulative concentration-response curve for LTD4 on triplicate tissues was generated by successive increases in the bath concentration of the LTD4. In order to minimize intertissue variability, the contractions elicited by LTD4 were standardized as a percentage of the maximum response obtained to a reference agonist, carbachol (10 μM).
Calculations: The averages of the triplicate LTD4 concentration-response curves both in the presence and absence of the test compound were plotted on log graph paper. The concentration of LTD4 needed to elicit 30% of the contraction elicited by carbachol was measured and defined as the EC30. The -log KB value for the test compound was determined by the following equations: [formula] In vivo: Anesthetized, spontaneously breathing guinea pigs (Adult male albino Hartley strain) were monitored on a Buxco pulmonary mechanics computer. Changes in airway resistance (RL) were calculated by the computer on a breath-by-breath basis at isovolumic points from signals measuring airflow and transpulmonary pressure using differential pressure transducers. Animals received either test compound or vehicle control intravenously via the jugular vein. LTD4 was then injected into the jugular vein. The bronchoconstriction produced was reflected by % changes in airways resistance relative to the baseline values obtained prior to injection of the test compound or vehicle control. Each guinea pig received either vehicle control or test compound.
Calculations: The average of 3-6 animals per treatment was calculated using the % changes in the pulmonary parameters for control and test compound-treated animals. The average % inhibition by the test compound was calculated from the following equation: [formula]

Structure (SMILES) | activity against carrageenan peritonitis [1] | ED50 ([2]; Mus musculus, oral) [mg/kg] | anti-inflammatory activity ([2]; oral administration) | anti-inflammatory activity ([2]; subcutaneous administration) | anti-inflammatory activity ([2]; topical administration) | Kb [3] [nM] | % Inhibition of RL ([4]; (1) 5 mg/kg) [%] | % Inhibition of RL ([4]; (2) 5 mg/kg) [%] | % Inhibition of RL ([4]; 10 mg/kg) [%]
O=C(O)CCSC(SCCC(=O)O)c1ccccc1CCCCCCCCc1ccccc1 [2 2 C8 H16 phenyl H, 4,6-Dithia-5-[2-(8-phenyloctyl)phenyl]nonanedioic acid] | demonstrated activity | 105 | demonstrated anti-inflammatory activity | demonstrated anti-inflammatory activity | demonstrated anti-inflammatory activity | 316 | 100 | 95.3 | –
O=C(O)CCSC(SCCC(=O)O)c1ccccc1OCCCCCCc1ccccc1 [2 2 OC6 H12 phenyl H, 4,6-Dithia-5-[2-(6-phenylhexyloxy)phenyl]nonanedioic acid] | – | – | – | – | – | 5010 | – | – | 26.4
